In brackets after ≈: the same amount, converted by molar mass.
Experiments:
Water solubility = format: physicochemical
[1] = test system: leukemia cell lines (K562/S, K562/Vcr30, HL60/0 and HL60/Nov); assay: Leukemia cell viability, summary over the four cell lines; format: cell-based, human; conditions: 72 h
Description: (§1) The human chronic myeloid leukemia K562/S and K562/Vcr30 lines and the acute myeloid leukemia cell lines HL60/0 and HL60/Nov were obtained from ATCC. The K562/S and […] are wild type (non-resistant) cells, whereas K562/Vcr30 and HL60/Nov are cytostatic-resistant sublines. All leukemia cell lines were cultured in RPMI 1640 medium supplemented with 10% fetal bovine serum and with 2 mM L-glutamine, benzylpenicillin (100 U/ml) and streptomycin (100 μg/ml). The cells were grown in tissue culture flasks maintained at 95% air/5% CO2 atmosphere at 37° C. in a humidified incubator. For the experiments cells were cultured in 60-mm plastic dishes or 96-well plastic plates.
Cell proliferation kit II (Roche Inc.) is based on colorimetric change of the yellow tetrazolium salt XTT in orange formazan dye by the respiratory chain of viable cells (Roehm, N W, et al., J Immunol Methods 142:257-265, 1991). Cells seeded at a concentration of 5000/well in 100 μl medium in a 96-well plate were treated with different drugs in the given concentration. […] After 4 h the formazan dye is quantified using a scanning multiwell spectrophotometer with a 495-nm filter. The absorbance is directly correlated with the number of viable cells. The standard absorbance curve was drawn by means of untreated cells seeded at a concentration of from 1000 to 10 000 cells/well with an increasing rate of 1000 cells/well. […]

non-IGF-1R kinases = assay: In vitro tyrosine kinase assay: non-IGF-1R kinases (IGF-1R-immunodepleted supernatant); format: biochemical; conditions: cell-free, FIG. 3
Description: (§2) IGF-1R-catalyzed substrate phosphorylation of polyTyrGlu (pTG) was performed essentially as previously described [Parrizas M., et al., ibid., and Blum G., et al., ibid.]. Immunoprecipitated IR from HepG2, IGF-1R from P6 cell extract and immunodepleted supernatant to assay non-IGF-1R tyrosine kinases. The phosphorylated polymer substrate was probed with a purified phosphotyrosine specific monoclonal antibody conjugated to horseradish peroxidase (HARP). Color was developed with HRP chromogenic substrate o-phenylene-diamine dihydrochloride (OPD). The color was quantitated by spectrophotometry (ELISA reader) and reflects the relative amount of tyrosine kinase. The precipitate was immunoblotted with anti-bodies to IGF-1R and IR to verify the presence of the receptor. Serial dilutions were used to assay the optimal conditions with respect to the amount of IGF-1R and IR. The signal was linear for 30 minutes and was a function of IGF-1R concentration up to 75 ng/well. […] After spectrophotometry the IC50 values of inhibitors were determined using the Regression function of Statistica program.
(§3) Therefore we isolated the receptor and determined the effects of picropodophyllin on IGF-1R catalyzed substrate tyrosine phosphorylation and IGF-1R autophosphorylation in-vitro.

IGF-1R = IGF-1R (Homo sapiens, UniProt P08069); assay: In vitro tyrosine kinase assay: IGF-1R-catalyzed substrate phosphorylation of polyTyrGlu (pTG), cell-free; format: biochemical; design: expressed in transfected cells; host or cells: P6 cell line (murine fibroblasts overexpressing human IGF-1R); receptor captured on plates with an antibody to the beta subunit; conditions: FIG. 3
Chain of IGF-1R (P08069 31-1367): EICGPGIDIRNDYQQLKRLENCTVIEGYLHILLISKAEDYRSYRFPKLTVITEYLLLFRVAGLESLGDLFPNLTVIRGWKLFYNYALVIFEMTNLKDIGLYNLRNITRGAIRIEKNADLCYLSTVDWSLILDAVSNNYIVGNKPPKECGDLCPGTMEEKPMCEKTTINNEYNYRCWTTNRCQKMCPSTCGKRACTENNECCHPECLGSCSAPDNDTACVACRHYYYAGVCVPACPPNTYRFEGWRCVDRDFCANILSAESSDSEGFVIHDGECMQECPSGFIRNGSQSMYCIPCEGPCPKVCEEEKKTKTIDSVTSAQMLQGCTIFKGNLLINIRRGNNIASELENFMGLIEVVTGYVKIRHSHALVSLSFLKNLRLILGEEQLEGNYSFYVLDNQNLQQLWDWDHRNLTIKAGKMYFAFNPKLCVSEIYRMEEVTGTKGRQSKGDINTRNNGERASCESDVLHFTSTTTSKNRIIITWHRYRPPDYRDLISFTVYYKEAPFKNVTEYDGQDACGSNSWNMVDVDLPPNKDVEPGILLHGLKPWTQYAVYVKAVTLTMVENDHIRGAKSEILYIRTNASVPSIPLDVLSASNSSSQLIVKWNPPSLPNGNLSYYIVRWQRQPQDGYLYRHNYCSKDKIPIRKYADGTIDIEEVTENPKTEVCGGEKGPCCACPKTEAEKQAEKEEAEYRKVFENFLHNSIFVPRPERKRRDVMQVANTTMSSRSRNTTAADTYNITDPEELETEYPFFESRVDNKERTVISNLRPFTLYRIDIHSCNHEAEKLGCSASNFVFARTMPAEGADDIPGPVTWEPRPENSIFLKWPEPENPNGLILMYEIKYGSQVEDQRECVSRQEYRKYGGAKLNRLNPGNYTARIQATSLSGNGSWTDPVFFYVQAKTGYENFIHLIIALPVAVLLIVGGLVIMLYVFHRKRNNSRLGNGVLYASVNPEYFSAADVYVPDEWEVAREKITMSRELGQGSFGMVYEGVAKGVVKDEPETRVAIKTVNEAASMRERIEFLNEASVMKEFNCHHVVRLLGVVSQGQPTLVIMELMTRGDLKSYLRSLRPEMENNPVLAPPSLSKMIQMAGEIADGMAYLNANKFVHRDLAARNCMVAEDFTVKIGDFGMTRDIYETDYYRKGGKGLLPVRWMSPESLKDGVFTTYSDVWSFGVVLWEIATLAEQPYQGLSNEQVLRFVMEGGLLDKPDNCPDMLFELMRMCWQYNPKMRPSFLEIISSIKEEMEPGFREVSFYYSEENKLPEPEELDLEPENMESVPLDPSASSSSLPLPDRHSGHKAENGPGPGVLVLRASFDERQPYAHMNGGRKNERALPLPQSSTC
Description: as §2, §3

[2] = test system: microtubule polymerisation; conditions: cited from earlier work
[3] = test system: BE (melanoma cells) xenografts; assay: Tumor growth of BE xenografts in nude mice; format: in vivo; conditions: 28 mg/kg i.p. daily 4-6 days, then 4-6 days without treatment, FIG. 6
Description: Control mice were treated with the solvent. 3-6 animals were treated in each group.
Because of the toxicity of podophyllotoxin and deoxypodophyllotoxin, we only used picropodophyllin to analyze effects on tumor xenografts. For this purpose ES-1 (Ewing's sarcoma cells) and BE (melanoma cells) xenografts were established in nude mice. When the ES-1 and BE tumors started growing subcutaneously and were measurable, mice were treated daily with intraperitoneal injections of picropodophyllin (28 mg/kg, which was required for giving an average concentration above 0.05 μM of picropodophyllin in the blood plasma) or 80% DMSO in saline as a carrier for 4-6 days, followed by 4-6 days without treatment. The mice were then killed and the tumors analyzed by an experienced pathologist.

[4] = test system: HL60/Nov acute myeloid leukemia cells; assay: Leukemia cell viability, HL60/Nov; format: cell-based, human; conditions: Homo sapiens, HL-60, 72 h, read-out: IC50 for cell viability
Description: as §1
Cell proliferation kit II (Roche Inc.) is based on colorimetric change of the yellow tetrazolium salt XTT in orange formazan dye by the respiratory chain of viable cells (Roehm, N W, et al., J Immunol Methods 142:257-265, 1991). Cells seeded at a concentration of 5000/well in 100 μl medium in a 96-well plate were treated with different drugs in the given concentration. After 24 or 48 h the cells were incubated, according to the manufacturer's protocol, with XTT labelling mixture. After 4 h the formazan dye is quantified using a scanning multiwell spectrophotometer with a 495-nm filter. The absorbance is directly correlated with the number of viable cells. The standard absorbance curve was drawn by means of untreated cells seeded at a concentration of from 1000 to 10 000 cells/well with an increasing rate of 1000 cells/well. All standards and experiments were performed in triplicates.
Cells of said cell lines were seeded in 96-well plates (25 000 cells/well, medium volume per well was 100 μl), in […] medium supplemented with fetal calf serum. After 24 h picropodophyllin and the derivatives alpha-apopicropodophyllin and beta-apopicropodo-phyllin were added at different concentrations and the cells were incubated for 72 h. Cell viability was then assayed (see above). […] The results are based on 3 different experiments.
The leukemia cell lines K562/S, […], HL60/0 and HL60/Nov were cultured in 96-well plates as described in Experiment 7. After 24 h, the cells were treated for 72 h with different concentrations of the anti-cancer agent vincristine, with and without co-incubation with 0.05 μM picropodophyllin. […] Cell viability was then assayed. IC50 values for each inhibitor and cell line are shown below (Table 8). The results are based on 3 different experiments.

[5] = nude, mouse, in vivo, ip, 28 mg/kg

Row | SMILES | solubility (Water solubility) | IC50 ([1]; Homo sapiens, read-out: Concentration needed to cause 50% cell death) | Cell death in the tumor cells ([1]; leukemia cell lines, 0.05 μM) | Interference with substrate phosphorylation of other non-IGF-1R kinases (non-IGF-1R kinases) | IC50 (IGF-1R) | Fold lower inhibitory effect on microtubule polymerisation than podophyllotoxin [2] | Effect on tumor growth [3] | IC50 [4] | Average concentration in the blood plasma [5]
1 | COc1cc([C@@H]2c3cc4c(cc3[C@H](O)[C@H]3COC(=O)[C@H]23)OCO4)cc(OC)c1OC [Podophyllotoxin, podophyllotoxin] | 100 to 200 µM (≈ 41.4 to 82.9 µg/mL) |  |  |  |  |  |  |  | 
2 | COc1cc([C@@H]2c3cc4c(cc3[C@H](O)[C@H]3COC(=O)[C@@H]23)OCO4)cc(OC)c1OC [Picropodophyllin, picropodophyllin] |  | 110 to 320 nM | did not cause any detectable cell death | failed to interfere | 6 nM | 50 fold | significantly inhibited growth | 110 nM | above 0.05 μM
